For assay [1], the target named is p38 (Homo sapiens, UniProt Q16539). Kind of assay: p38 in vitro kinase assay (SPA, GST-ATF2 substrate). The following applies: amount necessary to achieve 50% inhibition. The assay is classed as biochemical. How it is done:
(§1) JNK 2 and 3 in vitro assays: JNK3 and/or 2 assays are performed in 96 well MTT plates, by incubation of 0.5 μg of recombinant pre-activated GST-JNK or GST-JNK2 with 1 μg of recombinant, biotinylated GST-c-Jun and 2 μM ^33γ-ATP (2 nCi/μl), in the to presence or absence of sulfonamide inhibitors if formula I and in a reaction volume of 50 μl containing 50 mM Tris-HCl, pH 8.0; 10 mM MgCl2; 1 mM Dithiothreitol, and 100 μM NaVO4. The incubation is performed for 120 min. at R.T and stopped upon addition of 200 μl of a solution containing 250 μg of Streptavidine-coated SPA beads (Amersham, Inc.)^•, 5 mM EDTA, 0.1% Triton X-100 and 50 μM ATP, in phosphate saline buffer. After incubation for 60 minutes at RT, beads are sedimented by centrifugation at 1500×g for 5 minutes, resuspended in 200 μl of PBS containing 5 mM EDTA, 0.1% Triton X-100 and 50 μM ATP and the radioactivity measured in a scintillation β counter, following sedimentation of the beads as described above. By substituting GST-c Jun for biotinylated GST-1ATF2 or myelin basic protein, this assay can be used to measure inhibition of preactivated p38 and ERK MAP Kinases, respectively.
(§2) The values indicated in respect of JNK2 and 3, p38 and ERK2 refer to the IC50 (μM), i.e. the amount necessary to achieve 50% inhibition of said target (e.g. JNK2). From the above table it could be derived that said test compounds according to formula I do have a significant effect both on JNK2 and 3, but virtually no effect onto p38 and ERK2, thus delivering a quite selective inhibitory effect.

The test system of assay [2] is Hlr c-Jun HeLa cells. Put plainly: C-Jun reporter assay (Dual-Luciferase). The class given is cell-based. The following applies: Homo sapiens, Hlr c-Jun HeLa cells transfected with pMEKK1. How it is done: Hlr c-Jun HeLa cells are cultured in DMEM High Glc supplemented with 10% FCS (Sigma), 2 mM Glutamine (Gibco), P/S, Hygromycin b 100 μg/mL and G418 250 μg/mL
The cell suspension are diluted with medium to give about 3.5×10^6 cells/mL and 1 mL of cell suspension are put onto 2 10 cm culture dishes containing 9 mL of culture medium.
• Control: 0.2 μg pTK Renilla, 5.8 μg pBluescript KS, 500 μl OPTIMEM (GIBCO), 18 μl Fugene 6 • Induced: 0.1 μg pMEKK1, 0.2 μg pTK Renilla, 5.7 μg pBluescript KS, 500 μl OPTIMEM (GIBCO), 18 μl Fugene 6 30′ RT
The transfection mixture is added to the plated cells. The plates are incubated over night at 37° C. in a humidified atmosphere of 5% CO2 in air
A 96 wells plate containing 100 μl of culture medium per well is prepared
Negative control (vehicle): 2 μl of DMSO is added to the 100 μl (in triplicate).
Compound: 2 μl of Hit compound stock dilution are added to the 100 μl (in triplicate).
The transfected cells are trypsinised and ressuspend in 12 mL of culture medium.
100 μl of the dilution are added to each of the 96 wells plate.
The plate is incubated over night at 37° C. in a humidified atmosphere of 5% CO2 in air
Dual-Luciferase™ Reporter Assay System (Promega)
The medium is removed from the plate and the cells washed two times with 100 μl PBS Completely remove the rinse solution before applying PLB reagent. Dispense into each culture well […] of 1×PLB. Place the culture plates on a rocking platform or orbital shaker with gentle
rocking/shaking to ensure complete and even coverage of the cell monolayer with 1×PLB. Rock the culture plates at room temperature for 15 minutes. Transfer 20 μl of the lysate into a white opaque 96 wells plate. Read in a luminometer.
• Inject 50 μl of Luciferase Assay Reagent II wait 5″, read 10″ • Inject 50 μl of Stop & Glo® Reagent wait 5″, read 10″ Check RLU Luciferase/RLU Renilla *1000

Assay [3] deals with JNK3 (Homo sapiens, UniProt P53779). Kind of assay: JNK3 in vitro assay (SPA, GST-c-Jun phosphorylation). The following applies: amount necessary to achieve 50% inhibition, GST-c-Jun substrate. The assay is classed as biochemical. How it is done:
as §1, §2

Assay [4] addresses ERK2 (Homo sapiens, UniProt P28482). Kind of assay: ERK2 in vitro kinase assay (SPA, myelin basic protein substrate). The assay is classed as biochemical. The following applies: amount necessary to achieve 50% inhibition. The protocol:
as §1, §2

The subject of assay [5] is IL-2 release by PMA+Iono-stimulated Jurkat cells. Kind of assay: IL-2 release assay (ELISA). The assay is classed as cell-based. The following applies: Homo sapiens, PMA+Ionomycine-stimulated Jurkat cells, 24 hours, read-out: % Inhibition of IL2 Production @3 uM. How it is done:
Jurkat cells, a human T cell leukemia cell line (American Type Culture Collection # TIB 152) were cultured in RPMI 1640 medium (Gibco, BRL) supplemented with 10% of […] FCS, Glutamine and Penstrep. The cell suspension in the medium is diluted to give 2.10^6 cells/mL. The cells were plated (2.10^5 cells/well) on a 96-well plate containing different concentration of test compound (final concentration of compounds, 10, 3, 1, […], 0.1 μM). This mixture is incubated 30 minutes at 37° C. in a humidified CO2 atmosphere. Cells were then treated with 10 ul PMA+Ionomycine (0.1 μM and 1 μM final concentration) in all wells except negative control. In wells without compounds, 10 μl of RPMI 2% DMSO (=0.1% final) is added. Cells are incubated 24 hours at 37° C. and then the supernatant harvested (freeze at −20° C. if not used the same day) prior to performing IL-2 ELISA test on the supernatant.
IL-2 release into the medium by PMA+Iono-stimulated Jurkat cells, in presence or absence of test compounds is assayed by ELISA. Following the procedure described below
Transfer 100 μl capture antibody diluted in PBS at 5 μg/mL into a 96 well ELISA plate and incubate overnight at room temperature.
Aspirate each well and wash 3 times with Wash buffer. After the last wash, damp the plate.
1. Saturate with 200 μl PBS-10% FCS. Incubate 1 hour at room temperature.
2. Repeat the wash step 2.
• 1. Add 100 μl of sample or standard ([…]) and incubate 2 hours at room temperature. • 2. Wash 3 times. • 3. Add 100 μl of biotinylated anti-human IL-2 at 12.5 ng/mL. Incubate 2 hours at room temperature. • 4. Wash 3 times. • 5. Add 100 μl streptavidin-HRP (Zymed #43-4323) at 1:10′000. Incubate 30 minutes at room temperature. • 6. Wash 3 times • 7. Add 100 μl substrate solution (citric acid/Na2HPO4 (1:1)+H2O2 1:2000+OPD). Incubate 20-30 minutes at room temperature. • 8. Add 50 μl of stop solution to each well. • 9. Determine optical density using a microliter plate reader set to 450 nm with correction at 570 nm.
(In general: An ELISA detects its analyte on a solid surface through an enzyme-linked reagent.)

Assay [6] addresses JNK2 (Homo sapiens, UniProt P45984). Kind of assay: JNK2 in vitro assay (SPA, GST-c-Jun phosphorylation). The class given is biochemical. To be noted: amount necessary to achieve 50% inhibition, GST-c-Jun substrate. The protocol:
as §1, §2

The record followed here is patent publication US8012995B1, “Pharmaceutically active sulfonamide derivatives” (Merck Serono SA, priority 1999, dated 2011).

One may read the IC50 as the midpoint of a concentration-inhibition curve. A higher IC50 goes with lower potency. A word on the inhibition: it is the change of the read-out against control, counted positive when it falls.

Molecules are shown by their SMILES.

Sequence of JNK2 (P45984 whole entry, species assumed): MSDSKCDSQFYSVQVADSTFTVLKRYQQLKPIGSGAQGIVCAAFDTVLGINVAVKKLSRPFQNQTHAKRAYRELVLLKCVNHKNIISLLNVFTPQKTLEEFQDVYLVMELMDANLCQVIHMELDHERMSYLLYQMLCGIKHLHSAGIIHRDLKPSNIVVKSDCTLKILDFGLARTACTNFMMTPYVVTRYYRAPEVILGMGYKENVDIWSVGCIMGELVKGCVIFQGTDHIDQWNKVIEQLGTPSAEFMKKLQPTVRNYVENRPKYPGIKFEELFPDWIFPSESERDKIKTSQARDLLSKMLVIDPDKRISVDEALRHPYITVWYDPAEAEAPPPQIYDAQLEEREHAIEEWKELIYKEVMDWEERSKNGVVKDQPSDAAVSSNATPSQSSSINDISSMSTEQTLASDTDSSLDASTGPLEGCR
Sequence of ERK2 (P28482 whole entry, species assumed): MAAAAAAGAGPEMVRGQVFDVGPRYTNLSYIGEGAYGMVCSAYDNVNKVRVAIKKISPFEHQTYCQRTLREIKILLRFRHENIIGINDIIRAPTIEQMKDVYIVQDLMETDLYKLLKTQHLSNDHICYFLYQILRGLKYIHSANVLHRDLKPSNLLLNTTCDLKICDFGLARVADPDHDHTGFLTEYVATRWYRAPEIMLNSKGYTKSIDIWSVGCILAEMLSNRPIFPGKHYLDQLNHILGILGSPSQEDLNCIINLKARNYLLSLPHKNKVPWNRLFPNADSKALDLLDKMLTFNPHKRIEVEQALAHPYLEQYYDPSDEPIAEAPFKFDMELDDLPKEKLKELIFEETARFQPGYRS
Sequence of JNK3 (P53779 whole entry, species assumed): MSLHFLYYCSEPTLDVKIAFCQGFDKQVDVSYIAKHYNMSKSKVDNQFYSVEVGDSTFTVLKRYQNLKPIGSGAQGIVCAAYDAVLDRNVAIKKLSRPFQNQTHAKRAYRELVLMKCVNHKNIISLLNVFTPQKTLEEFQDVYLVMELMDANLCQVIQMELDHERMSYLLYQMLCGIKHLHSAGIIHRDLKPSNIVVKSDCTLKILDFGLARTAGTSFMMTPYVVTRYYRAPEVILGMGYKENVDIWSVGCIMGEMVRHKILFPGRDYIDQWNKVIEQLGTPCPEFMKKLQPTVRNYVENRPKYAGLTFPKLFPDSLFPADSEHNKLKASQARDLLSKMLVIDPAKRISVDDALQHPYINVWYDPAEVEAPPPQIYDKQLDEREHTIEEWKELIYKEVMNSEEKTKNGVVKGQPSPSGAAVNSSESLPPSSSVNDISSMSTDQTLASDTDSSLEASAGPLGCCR
Sequence of p38 (Q16539 whole entry): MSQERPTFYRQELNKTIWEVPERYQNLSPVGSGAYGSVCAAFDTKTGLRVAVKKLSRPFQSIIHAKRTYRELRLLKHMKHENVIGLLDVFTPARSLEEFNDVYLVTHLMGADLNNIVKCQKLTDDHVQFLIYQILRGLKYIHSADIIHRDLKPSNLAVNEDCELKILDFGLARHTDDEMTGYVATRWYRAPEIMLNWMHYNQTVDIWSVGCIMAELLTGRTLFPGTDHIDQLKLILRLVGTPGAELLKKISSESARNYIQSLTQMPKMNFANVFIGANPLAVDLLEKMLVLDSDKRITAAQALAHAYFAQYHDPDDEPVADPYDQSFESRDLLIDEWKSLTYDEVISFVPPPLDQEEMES

Regarding `O=C(NCc1ccc(S(=O)(=O)N2CCC(C(=O)c3ccc(F)cc3F)CC2)s1)c1ccc(Cl)cc1` [Example 37, 4-chloro-N-[(5-{[4-(2,4-difluorobenzoyl)piperidin-1-yl]sulfonyl}thien-2-yl)methyl]benzamide], the half-maximal inhibitory concentration (IC50) is above 30000 nM in assay [1], 680 nM in assay [3], above 30000 nM in assay [4] and 1190 nM in assay [6]. In assay [2], this compound returned an inhibition at 10 µM above 30%. In addition, the inhibition at 3 µM in assay [5] was above 30%.

Regarding `O=C(NCc1ccc(S(=O)(=O)N2CCCN(C(=O)Cc3ccccc3)CC2)s1)c1ccc(Cl)cc1` [Example 84, 4-chloro-N-[(5-{[4-(phenylacetyl)-1,4-diazepan-1-yl]sulfonyl}thien-2-yl)methyl]benzamide], the IC50 in assay [1] is above 30000 nM; in assay [3], 860 nM; in assay [4], above 30000 nM; in assay [6], 1300 nM. The same compound came in with an inhibition at 10 µM in assay [2] above 30%. The inhibition at 3 µM in assay [5] is above 30%.

Turning to `O=C(NCc1ccc(S(=O)(=O)N2CCC(Nc3ccccc3)CC2)s1)c1ccc(Cl)cc1` [Example 86, N-({5-[(4-anilinopiperidin-1-yl)sulfonyl]thien-2-yl}methyl)-4-chlorobenzamide], the IC50 in assay [1] was above 30000 nM; in assay [3], 800 nM; in assay [4], above 30000 nM; in assay [6], 1050 nM. In assay [2], this compound came in with an inhibition at 10 µM above 30%. Also, the inhibition at 3 µM in assay [5] is above 30%.

With `O=C(NCc1ccc(S(=O)(=O)N2CCC(n3nnc4ccccc43)CC2)s1)c1ccc(Cl)cc1` [Example 91, N-[(5-{[4-(1H-1,2,3-benzotriazol-1-yl)piperidin-1-yl]sulfonyl}thien-2-yl)methyl]-4-chlorobenzamide], the half-maximal inhibitory concentration (IC50) in assay [1] was above 30000 nM; in assay [3] it was 150 nM; in assay [4] it was above 30000 nM; in assay [6] it was 640 nM. In assay [2], this compound showed an inhibition at 10 µM above 30%. In assay [5], the inhibition at 3 µM was above 30%.

Regarding `O=C(NCc1ccc(S(=O)(=O)N2CCC(n3cnc4ccccc43)CC2)s1)c1ccc(Cl)cc1` [Example 109, N-[(5-{[4-(1H-benzimidazol-1-yl)piperidin-1-yl]sulfonyl}thien-2-yl)methyl]-4-chlorobenzamide], the IC50 was above 30000 nM in assay [1], 230 nM in assay [3], above 30000 nM in assay [4] and 590 nM in assay [6]. This compound showed an inhibition at 10 µM in assay [2] above 30%. In addition, the inhibition at 3 µM in assay [5] is above 30%.

With `O=C(NCc1ccc(S(=O)(=O)N2CCC(Nc3ccc(Cl)cc3)CC2)s1)c1ccc(Cl)cc1` [Example 120, 4-chloro-N-[(5-{[4-(4-chloroanilino)piperidin-1-yl]sulfonyl}thien-2-yl)methyl]benzamide], the IC50 is above 30000 nM in assay [1], 400 nM in assay [3], above 30000 nM in assay [4] and 560 nM in assay [6]. In assay [2], the inhibition at 10 µM was above 30%. Besides, the inhibition at 3 µM in assay [5] was above 30%.

As for `O=C(NCc1ccc(S(=O)(=O)N2CCC(Nc3cccc(S(=O)(=O)CCO)c3)CC2)s1)c1ccc(Cl)cc1` [Example 131, 4-chloro-N-({5-[(4-{3-[(2-hydroxyethyl)sulfonyl]-anilino}piperidin-1-yl)sulfonyl]thien-2-yl}methyl)-benzamide], the half-inhibitory concentration (IC50) in assay [1] was above 30000 nM; in assay [3], 710 nM; in assay [4], above 30000 nM; in assay [6] it was 2230 nM. The inhibition at 10 µM in assay [2] is above 30%. Also, the inhibition at 3 µM in assay [5] is above 30%.

Turning to `NS(=O)(=O)c1cccc(NC2CCN(S(=O)(=O)c3ccc(CNC(=O)c4ccc(Cl)cc4)s3)CC2)c1` [Example 155, N-{[5-({4-[3-(aminosulfonyl)anilino]piperidin-1-yl}sulfonyl)thien-2-yl]methyl}-4-chlorobenzamide], the half-maximal inhibitory concentration (IC50) is above 30000 nM in assay [1], 530 nM in assay [3], above 30000 nM in assay [4] and 500 nM in assay [6]. For the same compound, in assay [2], the inhibition at 10 µM is above 30%. Moreover, the inhibition at 3 µM in assay [5] is above 30%.

Turning to `O=C(NCc1ccc(S(=O)(=O)N2CCN(C(=O)c3cccc4ccccc34)CC2)s1)c1ccc(Cl)cc1` [Example 168, 4-chloro-N-[(5-{[4-(1-naphthoyl)piperazin-1-yl]sulfonyl}thien-2-yl)methyl]benzamide], the IC50 is above 30000 nM in assay [1], 890 nM in assay [3], above 30000 nM in assay [4] and 1200 nM in assay [6]. In addition, the inhibition at 10 µM in assay [2] was above 30%. In addition, in assay [5], the inhibition at 3 µM was above 30%.

As to `COc1cccc(NC2CCN(S(=O)(=O)c3ccc(CNC(=O)c4ccc([N+](=O)[O-])cc4)s3)CC2)c1` [Example 204, 4-nitro-N-[(5-{[4-(3-methoxyanilino)piperidin-1-yl]sulfonyl}thien-2-yl)methyl]-benzamide], the concentration for half-maximal inhibition (IC50) is above 30000 nM in assay [1], 170 nM in assay [3], above 30000 nM in assay [4] and 220 nM in assay [6]. Further, the inhibition at 10 µM in assay [2] was above 30%. Further, in assay [5], the inhibition at 3 µM is above 30%.

For `COC(=O)c1cccc(NC2CCN(S(=O)(=O)c3ccc(CNC(=O)c4ccc([N+](=O)[O-])cc4)s3)CC2)c1` [Example 211, methyl 3-{[1-({5-[({4-nitrobenzoyl}amino)methyl]thien-2-yl}sulfonyl)piperidin-4-yl]amino}benzoate], the IC50 in assay [1] was above 30000 nM; in assay [3] it was 270 nM; in assay [4], above 30000 nM; in assay [6], 390 nM. The same compound returned an inhibition at 10 µM in assay [2] above 30%. Besides, the inhibition at 3 µM in assay [5] is above 30%.
